Tests used:
[1] = target: MEK1 activated ERK1 (Homo sapiens (Human), UniProt P27361); assay: Omnia continuous-read kinase assay for potency against MEK1 activated ERK1; format: biochemical; details: MEK1 activated ERK1, WT, ATP at KM
From the text: Omnia Assay Protocol for Potency Assessment Against MEK1 Activated ERK1:
The protocol below describes continuous-read kinase assays to measure potency of compounds against activated ERK1 enzyme. The mechanics of the assay platform are best described by the vendor (Invitrogen, Carlsbad, Calif.) on their website at the following URL: invitrogen.com/site/us/en/home.html.
Briefly, a 1.25× stock of ERK1 enzyme (14-439-K) from Millipore (Billerica, Mass.), 5×ATP (AS001A) and ST17-Sox conjugated peptide substrate (KNZ1171C) were prepared in 1× kinase reaction buffer consisting of 20 mM Tris, pH 7.5, 5 mM MgCl2, 1 mM EGTA, 5 mM β-glycerophosphate, 5% glycerol (10× stock, KB002A) and 0.2 mM DTT. 10 μL of ATP/ST17-sox peptide substrate mix was combined with 0.5 μL volume of 100% DMSO and serially diluted compounds were prepared in 100% DMSO in a Corning (#3574) 384-well, white, non-binding surface microtiter plate (Corning, N.Y.). Kinase reactions were started with the addition of 40 μL of ERK1 solution and monitored every 71 seconds for 30-240 minutes at λex360/λem485 in a Synergy plate reader from BioTek (Winooski, Vt.). At the conclusion of each assay, progress curves from each well were examined for linear reaction kinetics and fit statistics (R^2, 95% confidence interval, absolute sum of squares). Initial velocity (0 minutes to ˜30+ minutes) from each reaction was determined from the slope of a plot of relative fluorescence units vs time (minutes or seconds) and then plotted against inhibitor concentration to estimate ^AppIC50 from log [Inhibitor] vs Response, Variable Slope model in GraphPad Prism from GraphPad Software (San Diego, Calif.).
[Reagent] used in optimized protocol:
[ERK1]=4 nM, [ATP]=50 μM, [ST17-Sox]=10 μM (ATP ^appKM 48 μM)
The results of this assay show the degree of inhibition of ERK activity, which is a direct measurement of inhibition of ERK activity. Results from this assay are reported in Table A under the column “ERK1 Omnia WT ATP KM IC50 (nM).”

[2] = target: Erk1 (Homo sapiens (Human), UniProt P27361); assay: Protein Mass Modification Assay (intact protein MALDI); format: binding
Sequence of Erk1 (P27361 whole entry, looked up): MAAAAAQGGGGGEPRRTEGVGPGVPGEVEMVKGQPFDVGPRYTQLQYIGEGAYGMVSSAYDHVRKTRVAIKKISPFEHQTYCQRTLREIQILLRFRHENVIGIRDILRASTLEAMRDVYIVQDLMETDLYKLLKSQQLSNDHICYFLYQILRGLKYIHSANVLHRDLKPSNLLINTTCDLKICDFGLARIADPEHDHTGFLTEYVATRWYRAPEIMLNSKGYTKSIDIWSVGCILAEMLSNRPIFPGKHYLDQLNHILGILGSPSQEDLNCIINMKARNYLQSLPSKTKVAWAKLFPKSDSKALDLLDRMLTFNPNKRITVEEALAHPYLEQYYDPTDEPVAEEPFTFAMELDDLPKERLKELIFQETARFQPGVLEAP
Method in brief: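 Human Erk1 was incubated 60 min at room temperature with a 10-fold molar excess of compound, then analysed as intact protein by MALDI with sinapinic acid matrix. The centroid mass shift versus untreated protein was divided by compound molecular weight to give percent modified protein.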

Sequence of MEK1 activated ERK1 (P27361 whole entry): as the sequence (P27361 whole entry, looked up) above

IC50 [1] [nM]	ERK1 Mass Mod (%) [2]	SMILES
< 100	E (provided a mass modification of ≧70%)	C=CC(=O)Nc1ccccc1Nc1nc(N[C@H]2CCCN(C(N)=O)C2)ncc1C(F)(F)F [Compound I-18, (S)-3-((4-((2-Acrylamidophenyl)amino)-5-(trifluoromethyl)pyrimidin-2-yl)amino)piperidine-1-carboxamide]
< 100	E (provided a mass modification of ≧70%)	C=CC(=O)Nc1cc(C)ccc1Nc1nc(N[C@H]2CCCN(C(C)=O)C2)ncc1C(F)(F)F [Compound I-19, (S)—N-(2-((2-((1-Acetylpiperidin-3-yl)amino)-5-(trifluoromethyl)pyrimidin-4-yl)amino)-5-methylphenyl)acrylamide]
< 100	E (provided a mass modification of ≧70%)	C=CC(=O)Nc1cc(C)ccc1Nc1nc(N[C@H]2CCCN(C(=O)CO)C2)ncc1C(F)(F)F [Compound I-20, (S)—N-(2-((2-((1-(2-Hydroxyacetyl)piperidin-3-yl)amino)-5-(trifluoromethyl)pyrimidin-4-yl)amino)-5-methylphenyl)acrylamide]
< 100	E (provided a mass modification of ≧70%)	C=CC(=O)Nc1ccc(C)cc1Nc1nc(N[C@H]2CCCN(C(=O)CO)C2)ncc1C(F)(F)F [Compound I-37, (S)—N-(2-((2-((1-(2-hydroxyacetyl)piperidin-3-yl)amino)-5-(trifluoromethyl)pyrimidin-4-yl)amino)-4-methylphenyl)acrylamide]
< 100	E (provided a mass modification of ≧70%)	C=CC(=O)Nc1cc(C)ccc1Nc1nc(NC2CCC(=O)CC2)ncc1C(F)(F)F [Compound I-38, N-(5-Methyl-2-((2-((4-oxocyclohexyl)amino)-5-(trifluoromethyl)pyrimidin-4-yl)amino)phenyl)acrylamide]
< 100	E (provided a mass modification of ≧70%)	C=CC(=O)Nc1cc(C)ccc1Nc1nc(N[C@H]2CCCN(C(=O)CN)C2)ncc1C(F)(F)F [Compound I-42, (S)—N-(2-((2-((1-(2-Aminoacetyl)piperidin-3-yl)amino)-5-(trifluoromethyl)pyrimidin-4-yl)amino)-5-methylphenyl)acrylamide]
> 1000	E (provided a mass modification of ≧70%)	C=CC(=O)Nc1cc(C)ccc1Nc1nc(N[C@H]2CCCN(C(=O)c3ccccc3)C2)ncc1C(F)(F)F [Compound I-44, (S)—N-(2-((2-((1-Benzoylpiperidin-3-yl)amino)-5-(trifluoromethyl)pyrimidin-4-yl)amino)-5-methylphenyl)acrylamide]
< 100	G (proived a mass modification ≦30%)	C=C(C)S(=O)(=O)Nc1cc(C)ccc1Nc1nc(N[C@H]2CCCN(C(=O)CO)C2)ncc1C(F)(F)F [Compound I-47, (S)—N-(2-((2-((1-(2-Hydroxyacetyl)piperidin-3-yl)amino)-5-(trifluoromethyl)pyrimidin-4-yl)amino)-5-methylphenyl)prop-1-ene-2-sulfonamide]
< 100	E (provided a mass modification of ≧70%)	C=C(F)C(=O)Nc1ccccc1Nc1nc(N[C@H]2CCCN(C(C)=O)C2)ncc1C(F)(F)F [Compound I-55, (S)—N-(2-((2-((1-Acetylpiperidin-3-yl)amino)-5-(trifluoromethyl)pyrimidin-4-yl)amino)phenyl)-2-fluoroacrylamide]
> 1000	E (provided a mass modification of ≧70%)	C=CC(=O)Nc1ccccc1Nc1nc(N[C@@H]2CCN(C(=O)OC)C2)ncc1C(F)(F)F [Compound I-61, (R)-Methyl 3-((4-((2-Acrylamidophenyl)amino)-5-(trifluoromethyl)pyrimidin-2-yl)amino)pyrrolidine-1-carboxylate]
< 100	E (provided a mass modification of ≧70%)	C=CC(=O)Nc1cc(OC)ccc1Nc1nc(N[C@H]2CCCN(C(=O)CO)C2)ncc1C(F)(F)F [Compound I-64, (S)—N-(2-((2-((1-(2-Hydroxyacetyl)piperidin-3-yl)amino)-5-(trifluoromethyl)pyrimidin-4-yl)amino)-5-methoxyphenyl)acrylamide]

The remaining lines, values behind:

SMILES	IC50 [1] [nM]	ERK1 Mass Mod (%) [2]
N#CNC(=O)c1ccccc1Nc1nc(N[C@H]2CCCN(C(=O)CO)C2)ncc1C(F)(F)F [Compound I-26, (S)—N-Cyano-2-((2-((1-(2-hydroxyacetyl)piperidin-3-yl)amino)-5-(trifluoromethyl)pyrimidin-4-yl)amino)benzamide]	> 1000	G (proived a mass modification ≦30%)
CC#CC(=O)Nc1ccccc1Nc1nc(N[C@H]2CCCN(C(=O)CO)C2)ncc1C(F)(F)F [Compound I-29, (S)—N-(2-((2-((1-(2-Hydroxyacetyl)piperidin-3-yl)amino)-5-(trifluoromethyl)pyrimidin-4-yl)amino)phenyl)but-2-ynamide]	> 1000	G (proived a mass modification ≦30%)
CC#CC(=O)N[C@@H]1CCCC[C@H]1Nc1nc(N[C@H]2CCCN(C(=O)CO)C2)ncc1C(F)(F)F [Compound I-33, N-((1R,2R)-2-((2-(((S)-1-(2-Hydroxyacetyl)piperidin-3-yl)amino)-5-(trifluoromethyl)pyrimidin-4-yl)amino)cyclohexyl)but-2-ynamide]	> 1000	F (provided a mass modification of 31-69%)
C=CS(=O)(=O)N[C@@H]1CCCC[C@H]1Nc1nc(N[C@H]2CCCN(C(=O)CO)C2)ncc1C(F)(F)F [Compound I-36, N-((1R,2R)-2-((2-(((S)-1-(2-Hydroxyacetyl)piperidin-3-yl)amino)-5-(trifluoromethyl)pyrimidin-4-yl)amino)cyclohexyl)ethenesulfonamide]	< 100	E (provided a mass modification of ≧70%)
C=CC(=O)Nc1ccccc1CNc1nc(N[C@H]2CCCN(C(=O)CO)C2)ncc1C(F)(F)F [Compound I-45, (S)—N-(2-(((2-((1-(2-Hydroxyacetyl)piperidin-3-yl)amino)-5-(trifluoromethyl)pyrimidin-4-yl)amino)methyl)phenyl)acrylamide]	> 1000	G (proived a mass modification ≦30%)
C=C(C)S(=O)(=O)Nc1ccccc1Nc1nc(N[C@H]2CCCN(C(=O)CO)C2)ncc1C(F)(F)F [Compound I-46, (S)—N-(2-((2-((1-(2-Hydroxyacetyl)piperidin-3-yl)amino)-5-(trifluoromethyl)pyrimidin-4-yl)amino)phenyl)prop-1-ene-2-sulfonamide]	< 100	G (proived a mass modification ≦30%)
C=C(C)S(=O)(=O)Nc1cc(C)ccc1Nc1nc(NC2CCC(=O)CC2)ncc1C(F)(F)F [Compound I-53, N-(5-Methyl-2-((2-((4-oxocyclohexyl)amino)-5-(trifluoromethyl)pyrimidin-4-yl)amino)phenyl)prop-1-ene-2-sulfonamide]	< 100	G (proived a mass modification ≦30%)
C=C(C)S(=O)(=O)Nc1cc(F)ccc1Nc1nc(N[C@H]2CCCN(C(=O)CO)C2)ncc1C(F)(F)F [Compound I-54, (S)—N-(5-Fluoro-2-((2-((1-(2-hydroxyacetyl)piperidin-3-yl)amino)-5-(trifluoromethyl)pyrimidin-4-yl)amino)phenyl)prop-1-ene-2-sulfonamide]	< 100	G (proived a mass modification ≦30%)
C=CC(=O)Nc1ccccc1Nc1nc(N[C@@H]2CCN(C(=O)CO)C2)ncc1C(F)(F)F [Compound I-62, (R)—N-(2-((2-((1-(2-Hydroxyacetyl)pyrrolidin-3-yl)amino)-5-(trifluoromethyl)pyrimidin-4-yl)amino)phenyl)acrylamide]	> 1000	F (provided a mass modification of 31-69%)
C=CC(=O)Nc1ccccc1Nc1nc(Nc2cc(C(=O)NOC)ccc2C)ncc1C(F)(F)F [Compound I-69, 3-((4-((2-Acrylamidophenyl)amino)-5-(trifluoromethyl)pyrimidin-2-yl)amino)-N-methoxy-4-methylbenzamide]	< 100	E (provided a mass modification of ≧70%)
C=CC(=O)Nc1ccccc1Nc1nc(Nc2cc(C(N)=O)ccc2OC)ncc1C(F)(F)F [Compound I-70, 3-((4-((2-Acrylamidophenyl)amino)-5-(trifluoromethyl)pyrimidin-2-yl)amino)-4-methoxybenzamide]	< 100	E (provided a mass modification of ≧70%)

From patent US9796700B2 (Celgene CAR LLC, priority 2013, dated 2017)
